The test system of assay [1] is PPAR-α. The assay is described as follows: PPAR-α activation capability, One-Factor-At-A-Time reporter gene (Dual-Luciferase) assay in CV-1 cells. The format is cell-based. To be noted: ratio based on the negative control, mean of three tests. An excerpt:
(§1) One of the known methods for determining PPAR activation by observing PPAR activation/inactivation is reporter gene assay (Kliewer et. al., Nature, 1992, 358: 771-774). The reporter gene assay includes cloning a base sequence containing a promoter of interest and reporter genes, and injecting the base sequence into eukaryotic cells to activate transcription and to control the expression of a protein. Herein, protein expression increases as the promoter is activated. The reporter gene used for the first time is CAT (chloramphenicol acetyltransferase) gene. Recently, luciferase gene has been used widely. In the present invention, a Dual-Luciferase Reporter Assay System Kit available from Promega Co. was used. The following test was carried out to determine PPAR-α activation capability. CV-1 cells (ATCC CCL 70), i.e. monkey kidney epithelial cell line, were subcultured in a DMEM medium containing 10% bovine fetal serum treated with charcoal/dextrin. A phenol red-free medium was used to avoid the effect of estrogen upon phenol red. As plasmids, used were plasmids having PPRE (PPARs responsive element) as a promoter, followed by firefly luciferase genes as a reporter, the PPRE being activated by PPAR- (gene-containing PPAR- and ligand-bound PPAR-) bound next to the universal promoter expressed under general culture conditions, and a reference plasmid to which renilla luciferase genes were bound. CV-1 cells were plated on a 24-well microtiter plate at a concentration of 5×10^4 cells per well and cultured for 24 hours. Then, the above three types of plasmid genes were subjected to transient transfection by using a TransFast Kit available from Promega Co. After the cultured product was washed with PBS (phosphate buffered saline) once, the product was treated with a suitable concentration of sample materials, cultured again for 24 hours, and washed with PBS twice. Next, the cells were lysed with PLB (passive lysis buffer, Promega) once, and determined for luciferase activity by using a Dual-Luciferase Reporter Assay System Kit (Promega) in the samples and the controls. In this test, as a positive control, Wy14643 known as the strongest PPAR-α ligand was used. As negative controls, DMSO used to dissolve the samples and non-treated group were used. Each reported value was calculated as a ratio based on the negative control. The results are shown in the following Table 1, wherein each value is the mean value obtained after carrying out the test three times.
(In a reporter assay the amount or activity of a reporter protein is the signal.)

The subject of assay [2] is PPAR-α. The assay is described as follows: PPAR-α activation capability of GCG/theobromine/quercetin combinations, response surface methodology (central composite design). The format is cell-based.
From the text: as §1, with “CV-1” for “One of the known methods for determining PPAR activation by observing PPAR activation/inactivation is reporter gene assay (Kliewer et. al., Nature, 1992, 358: 771-774). The reporter gene assay includes cloning a base sequence containing a promoter of interest and reporter genes, and injecting the base sequence into eukaryotic cells to activate transcription and to control the expression of a protein. Herein, protein expression increases as the promoter is activated. The reporter gene used for the first time is CAT (chloramphenicol acetyltransferase) gene. Recently, luciferase gene has been used widely. In the present invention, a Dual-Luciferase Reporter Assay System Kit available from Promega Co. was used. The following test was carried out to determine PPAR-α activation capability. CV-1”, “times. […] When using RSM, it is possible to understand the level of an independent parameter where a response value is optimized, to estimate the effect of an independent parameter upon response parameters via estimation of a functional relationship between each independent parameter and dependent parameter, and to determine optimized experimental conditions. […]” for “times.”

Regarding `Oc1cc(O)c2c(c1)O[C@H](c1ccc(O)c(O)c1)[C@@H](O)C2` [(+) CA], the “PPAR-α Activation” value in the assay with PPAR-α [1] (10 uM) is reported as 1.5; in the assay with PPAR-α [1] (100 uM), 1.4.
The corresponding values for `Oc1cc(O)c2c(c1)O[C@@H](c1ccc(O)c(O)c1)[C@@H](O)C2` [(+) EC] are 1.3 and 1.2.
The corresponding values for `O=C(O[C@@H]1Cc2c(O)cc(O)cc2O[C@H]1c1ccc(O)c(O)c1)c1cc(O)c(O)c(O)c1` [(−) CG] are 1.2 and 1.6.
The corresponding values for `O=C(O[C@@H]1Cc2c(O)cc(O)cc2O[C@@H]1c1ccc(O)c(O)c1)c1cc(O)c(O)c(O)c1` [(−) ECG] are 1.1 and 1.6.
On to `Oc1cc(O)c2c(c1)O[C@H](c1ccc(O)c(O)c1)[C@H](O)C2` [(−) EC], for which the “PPAR-α Activation” value in the assay on PPAR-α [1] (10 uM) and with PPAR-α [1] (100 uM) was 1.2 in each case.
Turning to `Oc1cc(O)c2c(c1)O[C@H](c1cc(O)c(O)c(O)c1)[C@H](O)C2` [(−) EGC], the “PPAR-α Activation” value in the assay on PPAR-α [1] (10 uM) is 1.3; with PPAR-α [1] (100 uM), 1.0.
As for `O=C(O[C@@H]1Cc2c(O)cc(O)cc2O[C@H]1c1cc(O)c(O)c(O)c1)c1cc(O)c(O)c(O)c1` [(−) GCG, gallocatechin gallate], the “PPAR-α Activation” value came out at 1.1 with PPAR-α [1] (10 uM) and 2.3 with PPAR-α [1] (100 uM). Further, in the assay on PPAR-α [2] (GCG 100, theobromine 0, quercetin 0), the “fold (PPAR-α activation)” value came out at 1.191 fold.
For `Oc1cc(O)c2c(c1)O[C@@H](c1cc(O)c(O)c(O)c1)[C@H](O)C2` [(−) GC], the “PPAR-α Activation” value worked out at 1.1 in the assay on PPAR-α [1] (10 uM) and 1.0 in the assay on PPAR-α [1] (100 uM).
The corresponding values for `Cn1c(=O)c2c(ncn2C)n(C)c1=O` [Caffeine] are 1.3 and 1.6.
Regarding `O=C(O)c1cc(O)c(O)c(O)c1` [Gallic acid], the “PPAR-α Activation” value in the assay on PPAR-α [1] (10 uM) came to 1.3; in the assay on PPAR-α [1] (100 uM), 1.7.
As for `O=c1c(O)c(-c2ccc(O)cc2)oc2cc(O)cc(O)c12` [Kaempferol], the “PPAR-α Activation” value turned out to be 1.7 in the assay with PPAR-α [1] (10 uM) and 1.4 with PPAR-α [1] (100 uM).
On the same counts, the results for `O=c1c(O)c(-c2cc(O)c(O)c(O)c2)oc2cc(O)cc(O)c12` [Myricetin] are 1.7 and 1.6.
For `Cc1cccc(Nc2cc(Cl)nc(SCC(=O)O)n2)c1C` [Positive Control, Wy14643], the “PPAR-α Activation” value was determined as 1.5 in the assay with PPAR-α [1] (0.1 uM), 2.6 in the assay with PPAR-α [1] (1 uM) and 3.8 in the assay with PPAR-α [1] (10 uM).
On to `O=c1c(O)c(-c2ccc(O)c(O)c2)oc2cc(O)cc(O)c12` [Quercetin], for which the “PPAR-α Activation” value is listed as 1.7 in the assay on PPAR-α [1] (10 uM) and 2.3 in the assay with PPAR-α [1] (100 uM). The “fold (PPAR-α activation)” value in the assay on PPAR-α [2] (GCG 0, theobromine 0, quercetin 100) is recorded as 1.3 fold.
For `O=C(O)[C@]1(O)C[C@@H](O)[C@@H](O)[C@H](O)C1` [Quinic acid], the “PPAR-α Activation” value with PPAR-α [1] (10 uM) was found to be 1.3; in the assay on PPAR-α [1] (100 uM), 1.7.
On the same counts, the results for `C[C@@H]1O[C@@H](OC[C@H]2O[C@@H](Oc3c(-c4ccc(O)c(O)c4)oc4cc(O)cc(O)c4c3=O)[C@H](O)[C@@H](O)[C@@H]2O)[C@H](O)[C@H](O)[C@H]1O` [Rutin hydrate] are 1.6 and 1.3.
On the same counts, the results for `CCNC(=O)CC[C@H](N)C(=O)O` [Theanine] are 1.8 and 1.9.
On to `Cn1cnc2c1c(=O)[nH]c(=O)n2C` [Theobromine], for which the “PPAR-α Activation” value in the assay with PPAR-α [1] (10 uM) was determined as 2.2; in the assay with PPAR-α [1] (100 uM) it was 4.5. In addition, the “fold (PPAR-α activation)” value with PPAR-α [2] (GCG 0, theobromine 100, quercetin 0) was determined as 1.905 fold.
As for `Cn1c(=O)c2[nH]cnc2n(C)c1=O` [Theophylline], the “PPAR-α Activation” value in the assay on PPAR-α [1] (10 uM) came to 1.4; in the assay with PPAR-α [1] (100 uM), 1.7.
The corresponding values for Epigallocatechin gallate [(−) EGCG] are 1.0 and 1.5.

(Values after patent US8563564B2, “Composition for skin external application containing gallocatechin gallate for moisturizing effect on the skin” (priority 2005, dated 2013).)
